The values that follow come from a melting point compilation (Tetko et al.; mined from patent text by program, amines drawn as free bases though some values may be those of a salt).

Consider `O=C(Nc1ncnc2c1ncn2C[C@@H]1O[C@H](CO)[C@@H](O)[C@H]1O)c1ccccc1`, for which the melting point lay within 85 to 90 °C.

Turning to `Cc1cc(C(=O)N(C(C)C)C(C)C)ccc1[N+](=O)[O-]`, the melting point was 108 to 110 °C.

`CC(=O)Nc1ccc(C(=O)Nc2ccccc2NC(=O)CNC(=O)OC(C)(C)C)cc1` showed a melting point of 125 to 126 °C.

Turning to `CC(C)SC[C@@H](C[C@H](O)[C@H](CC1CCCCC1)C(=O)OC(C)(C)C)C(C)C`, the melting point was in the range of 107 to 108 °C.

`COc1ccc(-c2cn(C)cc(-c3cccc(C(F)(F)F)c3)c2=O)cc1OC` yielded a melting point of 148 to 150 °C.

For `CCCC(CCC)N1CCc2c(C(=O)O)cc(F)cc2C1=O`, the melting point amounted to 143 °C.

`CC1(C)OC(=O)Nc2ccc(-c3cc([N+](=O)[O-])cc([N+](=O)[O-])c3)cc21` displayed a melting point of 297 to 298 °C.

Take `CNC(=O)c1cc(Oc2ccc(NC(=O)Nc3ccc(Br)c(C(F)(F)F)c3)cc2)ccn1`: the melting point fell in the range of 203 to 205 °C.

In turn, `O=[N+]([O-])c1ccc(Oc2cccc3cccnc23)c(Cl)c1` showed a melting point of 113 to 115 °C.

In turn, `Cc1ccc2c(c1)N(C(=O)CN(C)C)c1ccccc1S(=O)(=O)N2C` returned a melting point of 135 to 137 °C.

With `CCOC(=O)NCC(CC)C(NC(=O)OCC)NC(=O)OCC` (stereo unspecified), the melting point lay within 120 to 122 °C.

`Brc1ccc2c(c1)C(c1ccc(Oc3ccccc3)cc1)(c1ccc(Oc3ccccc3)cc1)c1cc(Br)ccc1-2` yielded a melting point of 178 to 180 °C.

As to `Cc1ccc2oc(=O)c(C(=O)O)c(-c3ccccc3)c2c1`, the melting point lay in the range of 129 to 131 °C.

`Cc1ccc(-c2ccccc2C(=O)Nc2ccc(C(=O)N3C[C@H]4CCCN4c4ccccc43)cc2)cc1`: the melting point lay in the range of 228 to 230 °C.

On to `O=C(C(=Cc1ccc(F)cc1)S(=O)(=O)c1ccccc1)c1ccccc1`, for which the melting point lay within 142 to 143 °C.

Consider `COc1ccc(C(=O)Nc2c(Cl)cncc2Cl)nc1OC1CCCC1`, for which the melting point lay in the range of 164 to 166 °C.

With `COc1cccc2c1nc(C(F)F)n2-c1nc(Nc2ccncn2)nc(N2CCOCC2)n1`, the melting point was 234 to 236 °C.

As for `Nc1c(Cl)cc(-c2nn(C3CCN(CCCC(F)(F)F)CC3)c(=O)o2)c2c1OCCO2`, the melting point turned out to be 188 °C.

`Nc1ccc(Sc2ncccn2)cc1` had a melting point of 124 to 126 °C.

Consider `COC(=O)c1sccc1NC(=S)N1CCN(c2ncnc3cc(OC)c(OC)cc23)CC1`, for which the melting point was 226 to 228 °C.

In turn, `CCC(=O)N(CC)c1cccc(C(=O)C=CN(C)C)c1` had a melting point of 105 to 107 °C.

`COc1ccc2c(c1)C(=O)N(c1ccc3c(ccn3C)n1)C2` had a melting point of 230 to 234 °C.

Take `O=S(=O)(CCc1ccc(-c2ccccc2)cc1)N1CC(CN2CCCC2)Cc2ccccc21` (stereo unspecified): the melting point is 107 to 110 °C.

As for `C#Cc1cnc2c(NC(=O)c3c(Cl)cccc3Cl)cccc2c1`, the melting point lay in the range of 219 to 220 °C.

In turn, `CCOC(=O)c1cc2nc(C)n(Cc3ccccc3)c2[nH]1` showed a melting point of 193 °C.

In turn, `OCc1ccccc1-c1ccc(CBr)cc1` returned a melting point of 101 to 106 °C.

On to `OC(c1ccccc1)C1CCCN1` (stereo unspecified), for which the melting point was 110 °C.

Regarding `O=C1CCCc2cc(CCN3CCN(c4nsc5ccccc45)CC3)ccc2N1`, the melting point lay in the range of 173 to 174 °C.

Take `N=C(N)c1ccc(CC23CCCN2C(=O)N(c2cc(Cl)cc(Cl)c2)C3=O)cc1` (stereo unspecified): the melting point stood at 188 °C.

In the case of `CO[C@@H]1CN(CCn2c(C)nc3ccccc3c2=O)CC[C@@H]1NC(=O)c1cc(Cl)c(N)c2c1OCC2` (relative stereo), the melting point worked out at 275 °C.

In turn, `CC(C)c1cccc(CC(=O)O)c1OCCCc1cn(-c2ccc(C(F)(F)F)cn2)nc1C(C)C` registered a melting point of 108 to 109 °C.

Molecule `CCOC(=O)c1cc(-c2cc(C)on2)[nH]n1` showed a melting point of 149 to 151 °C.

For `COc1ccc(NC(=O)CN2CCN(c3cccc(C(F)(F)F)c3)CC2)c([N+](=O)[O-])c1`, the melting point fell in the range of 98 to 100 °C.

Consider `COC(=O)CCNc1ccccc1CNC(=O)C1Cc2ccccc2N1S(=O)(=O)c1ccc(-c2ccc(F)cc2Cl)cc1` (stereo unspecified), for which the melting point was in the range of 70 to 73 °C.

Consider `O=C(O)c1cnc2n(c1=O)CCCCC2`, for which the melting point fell in the range of 117 to 119 °C.

With `CCCCC(=O)Nc1ccc(C(=O)OC)cc1[N+](=O)[O-]`, the melting point was in the range of 106 to 107 °C.

The molecule `O=C(NS(=O)(=O)C=Cc1ccccc1)N1CCC(CCCc2ccccc2)CC1` showed a melting point of 125 to 127 °C.

`N#Cc1c(Cl)cccc1C=O` yielded a melting point of 138 to 140 °C.

With `Cn1c(COc2ccc(CC3SC(=O)N(C(c4ccccc4)(c4ccccc4)c4ccccc4)C3=O)cc2)nc2cc(Cl)cnc21` (stereo unspecified), the melting point was 82 to 84 °C.

With `COC(=O)C1=C(C)Nc2ccnc(OC(C)C)c2C1c1c(Cl)cccc1Cl` (stereo unspecified), the melting point was determined as 245 °C.

The molecule `CNC1CCc2[nH]c3ccc(OCc4ccccc4)cc3c2C1` (stereo unspecified) registered a melting point of 120 to 121 °C.

`N#Cc1ccc(OCc2ccc(Cl)c(Cl)c2)cc1` gave a melting point of 222 to 223 °C.

`CC(C)(C)c1ccc(-c2cc(-c3cccs3)[nH]n2)cc1` displayed a melting point of 61 to 65 °C.

Molecule `Cc1ccc(-c2ccc(C(=O)Nc3ccc4cc(CN5CCCC5)cnc4c3C)cc2)s1` yielded a melting point of 220 to 221 °C.

In turn, `O=Cc1cc2c(cc1O)CCO2` displayed a melting point of 102 to 104 °C.

In turn, `CC1(C)CCC(C)(C)c2cc3cc(-c4cc(C(=O)O)cs4)ccc3cc21` gave a melting point of 223 to 225 °C.

The molecule `CC(=O)N1C(=O)NC2(C1=O)C(=O)N(Cc1ccc(Cl)c(Cl)c1)c1ccccc12` (stereo unspecified) showed a melting point of 185 to 187 °C.

As to `N#CC1CN1Cc1ccc(C(=O)O)s1` (stereo unspecified), the melting point was in the range of 108 to 111 °C.

`CCOc1ccccc1-c1nc2c(C)cccc2c(=O)[nH]1` came in with a melting point of 177 to 180 °C.

Molecule `CCOC(=O)c1ccc(/C=C(\C)c2ccc(O)c(C3(C)CCCCC3)c2)cc1` came in with a melting point of 124 °C.

Molecule `COc1cc(NS(=O)(=O)c2cccs2)c2[nH]c(C3=NCCS3)cc2c1` gave a melting point of 188 to 189 °C.

`CCOC(=O)c1cnn(-c2ccccn2)c1S(N)(=O)=O` gave a melting point of 73 to 76 °C.

On to `CN1CCN(c2cc(Cl)cc3c2c(=O)n(Cc2cccc(Cl)c2)c(=O)n3Cc2ccccc2)CC1`, for which the melting point lay within 165 to 169 °C.

For the molecule `CN1CC(C(=O)N(Cc2ccc(F)cc2)OCC(=O)O)=C(O)C1=O`, the melting point lay within 147 to 150 °C.

In the case of `O=[N+]([O-])c1cc(F)ccc1Sc1ccccc1`, the melting point is 66 to 67 °C.

Regarding `CCOC(=O)c1cn(C)c2c(=O)c3ccccc3oc2c1=O`, the melting point was in the range of 251 to 254 °C.

`CCOP(=O)(/C=C/c1cn(-c2ccccc2)nc1OCc1ccc(OCc2nc(-c3ccccc3)oc2C)cc1)OCC` registered a melting point of 109 to 110 °C.

With `Oc1cnc(C(F)(F)F)nc1`, the melting point was 179 to 181 °C.

For the molecule `CC(C)c1nc(C(N)=O)c2n1-c1ccc(Cl)cc1C(c1ccccc1Cl)=NC2`, the melting point was in the range of 328 to 330 °C.

For `CN(C)C(=O)C1CCc2c([nH]c3ccc(Cl)cc23)C1` (stereo unspecified), the melting point was 176 to 177 °C.

`COC(=O)C(C)=Cc1cc(N)ccc1Cl` came in with a melting point of 80 °C.

In the case of `COc1ccc(N2CCN(c3ccc(NC(=O)NCC(OC)OC)cc3)CC2)cc1`, the melting point stood at 225 °C.

Molecule `CCc1cc(Cc2cc(C)c(N)c(CC)c2)cc(C)c1N` displayed a melting point of 85 to 86 °C.

The molecule `CC(=O)Nc1nc(C)c(S(=O)(=O)N(C)CCO)s1` came in with a melting point of 189 °C.

In turn, `CC(C)(C)c1ccc(NC(=O)NCc2ccc3c(c2)CN(C2CCC(=O)NC2=O)C3=O)cc1` (stereo unspecified) yielded a melting point of 254 to 256 °C.

Take `CNC(=O)NC(Cc1c[nH]c2ccccc12)C(=O)OCc1cc(C)cc(C)c1` (stereo unspecified): the melting point lay in the range of 66 to 68 °C.

`CN(C)c1cc(Cl)c2c(c1)NC(=O)C(C)(c1ccccc1)C2=O` (stereo unspecified) registered a melting point of 224 to 226 °C.

Take `COc1cc(C=CC=O)ccc1OCc1nc(-c2ccco2)oc1C`: the melting point was in the range of 125 to 126 °C.

Molecule `CCCCCS(=O)(=O)NC(=O)/C=C/c1ccc(OCCC(C)=O)cc1Oc1ncc(C(F)(F)F)cc1Cl` gave a melting point of 180 to 181 °C.

The molecule `O=C(O)c1ccccc1SCCCCOc1ccc(C=Cc2ccncc2)cc1` gave a melting point of 229 to 231 °C.

The molecule `O=C1NC(=O)c2c1c(-c1ccccc1Cl)cc1[nH]c3ccc(CCO)cc3c21` came in with a melting point of 253 to 257 °C.

For the molecule `CCOC(=O)c1c(C2CC2)nn(CC)c1Cc1ccc(-c2ccccc2S(N)(=O)=O)cc1`, the melting point was in the range of 54 to 58 °C.

The molecule `NS(=O)(=O)c1cc2cc(CO)ccc2s1` gave a melting point of 174 to 176 °C.

Consider `C#CCOc1ccc2ccc(=S)oc2c1`, for which the melting point was in the range of 97 to 101 °C.

For `O=C1c2cccc3cccc(c23)C(=O)N1CCN1CCC(O)(c2ccccc2)CC1`, the melting point lay within 177 to 179 °C.

Molecule `O=C(CN1C(=O)C2(COc3cc4c(cc32)CCO4)c2c(-c3cncnc3)cccc21)Nc1ccccc1F` (stereo unspecified) returned a melting point of 229 to 230 °C.

`CCCCNC(=S)N1CCc2[nH]cnc2C1` returned a melting point of 130 °C.

Consider `Cc1c(C(=O)O)cnn1-c1ccc(Cl)c(Cl)c1`, for which the melting point is 188 °C.

Molecule `O=C(N[C@@H](Cc1ccccc1)[C@@H](O)[C@H](O)[C@H](Cc1ccccc1)NC(=O)c1ccccn1)c1ccccn1` showed a melting point of 179 to 184 °C.

For `C1=CC2(c3ccccc3CP(Cc3ccccc3)Cc3ccccc3)OC2(CP(Cc2ccccc2)Cc2ccccc2)C2OC12` (stereo unspecified), the melting point is 203 to 205 °C.

With `O=C(C1COc2ccc([N+](=O)[O-])cc21)N1CCCCC1` (stereo unspecified), the melting point was 108 to 114 °C.

Consider `CN(C(=O)Nc1ccccc1)c1ccc(Cl)cc1C(=O)c1ccccc1`, for which the melting point is 158 to 160 °C.

In turn, `COc1cc(OC)c2c(=O)[nH]c(-c3cc(C)c(OCCO)c(C)c3)nc2n1` displayed a melting point of 255 to 256 °C.

Molecule `COc1cc(OC)c(OC)c(-c2ccc(N(C)CCN(C)c3ccc(-c4cc(OC)cc(OC)c4OC)nc3)cn2)c1` gave a melting point of 171 to 172 °C.

Turning to `CNC(=O)c1cc(-c2ccc(OC)cc2)nn(Cc2ccc(Cl)cc2Cl)c1=O`, the melting point was 154 to 156 °C.

`CC(=O)c1ccc(NC(=O)c2ccc(-c3ccccc3)cc2)cc1` registered a melting point of 283 to 285 °C.

As usually defined, the melting point is the temperature, or range, at which the solid turns liquid.
